Tests used:
Experiment in all cases: Field trial, post-emergence weed control
Type in all cases: in vivo
Avena fatua = tested on: Avena fatua
Experimental: (§1) In the following examples, synergism for two-way combinations is determined by the Colby^1 method, i.e. the expected (or predicted) response of the combination is calculated by taking the product of the observed response for each individual component of the combination when applied alone divided by 100 and subtracting this value from the sum of the observed response for each component when applied alone. Synergism of the combination is then determined by comparing the observed response of the combination to the expected (or predicted) response as calculated from the observed responses of each individual component alone. If the observed response of the combination is greater than the expected (or predicted) response then the combination is said to be synergistic and falls within the definition of synergistic effect as previously defined.
(§2) In similar manner for the case of three-way combination, C3; is composed of component X plus component Y plus […] and Obs. designates the observed response of the combination C3. [formula]
(§3) Grassy and broadleaved weeds are either seeded perpendicular to the direction of the crop or broadcast in early to mid-May. The crop is seeded after the weed seed. Row width is 18 cm. The seed is drilled in with a Roger's 1.8 m width drill to a depth of 5 cm.
(§4) All trials employ standard accepted weed science procedures. Applications are made with a Roger's CO2-powered shrouded sprayer. Test design is a modified randomized complete block design with four replications. All applications are made post-emergence to the weeds and crop.
(§5) The test solutions are prepared by tank-mixing sufficient quantities of aqueous solutions and/or dispersions of the test compounds.
(§6) The treated plots are examined at intervals during the growing season and rated for percent control of weeds and crop injury. The data listed is an average of the replicates for that treatment. The Colby method of analysis is used to determine the resultant biological effect of the combination treatment as compared to the biological effect of each component when applied alone.

Chenopodium album = tested on: Chenopodium album
Experimental: as §1, §2, §3, §4, §5, §6

Galeopsis tetrahit = tested on: Galeopsis tetrahit
Experimental: as §1, §2, §3, §4, §5, §6

Galium aparine = tested on: Galium aparine
Experimental: as §1, §2, §3, §4, §5, §6

Kochia scoparia = tested on: Kochia scoparia
Experimental: as §1, §2, §3, §4, §5, §6

[1] = tested on: Polygonum (smartweed) spp.
Experimental: as §1, §2, §3, §4, §5, §6

Salsola kali = tested on: Salsola kali
Experimental: as §1, §2, §3, §4, §5, §6

Setaria viridis = tested on: Setaria viridis
Experimental: as §1, §2, §3, §4, §5, §6

Stellaria media = tested on: Stellaria media
Experimental: as §1, §2, §3, §4, §5, §6

Vaccaria pyramaidata = tested on: Vaccaria pyramaidata
Experimental: as §1, §2, §3, §4, §5, §6

[2] = tested on: Brassica napus (imidazolinone tolerant)
Experimental: Synergism of the combination is then determined by comparing the observed response of the combination to the expected (or predicted) response as calculated from the observed responses of each individual component alone. If the observed response of the combination is greater than the expected (or predicted) response then the combination is said to be synergistic and falls within the definition of synergistic effect as previously defined.
as §2, §3, §4, §5, §6

Brassica napus = tested on: Brassica napus
Experimental: as §1, §2, §3, §4, §5, §6

Polygonum convolvulus = tested on: Polygonum convolvulus
Experimental: as §1, §2, §3, §4, §5, §6

Sinapis arvensis = tested on: Sinapis arvensis
Experimental: as §1, §2, §3, §4, §5, §6

Amaranthus retroflexus = tested on: Amaranthus retroflexus
Experimental: as §1, §3, §4, §5, §6

imazamethabenz methyl
Percent Control (Avena fatua; 400 g/ha): 88%
Percent Control (Chenopodium album; 400 g/ha): 18%
Percent Control (Galeopsis tetrahit; 400 g/ha): 4%
Percent Control (Galium aparine; 400 g/ha): 48%
Percent Control (Kochia scoparia; 400 g/ha): 31%
Percent Control ([1]; 400 g/ha): 76%
Percent Control (Salsola kali; 400 g/ha): 9%
Percent Control (Setaria viridis; 400 g/ha): 10%
Percent Control (Stellaria media; 400 g/ha): 8%
Percent Control (Vaccaria pyramaidata; 400 g/ha): 20%
Percent Control ([2]; 400 g/ha): 0%

CCO/N=C(\CC)C1=C(O)CC(c2c(C)cc(C)cc2C)CC1=O (centres unmarked) [tralkoxydim]
Percent Control (Avena fatua; 200 g/ha): 97%
Percent Control (Brassica napus; 200 g/ha): 0%
Percent Control (Chenopodium album; 200 g/ha): 0%
Percent Control (Polygonum convolvulus; 200 g/ha): 0%
Percent Control (Sinapis arvensis; 200 g/ha): 0%
Percent Control (Vaccaria pyramaidata; 200 g/ha): 0%
Percent Control ([2]; 200 g/ha): 0%
Percent Control (Amaranthus retroflexus; 200 g/ha): 1%

O=C(O)c1nc(Cl)ccc1Cl [clopyralid]
Percent Control (Brassica napus; 150 g/ha): 12%
Percent Control (Chenopodium album; 150 g/ha): 51%
Percent Control (Galium aparine; 150 g/ha): 0%
Percent Control (Sinapis arvensis; 150 g/ha): 16%
Percent Control (Stellaria media; 150 g/ha): 10%
Percent Control ([2]; 150 g/ha): 8%

O=C(Nc1ccc(F)cc1)c1cccc(Oc2cccc(C(F)(F)F)c2)n1 [picolinafen]
Percent Control (Avena fatua; 50 g/ha): 5%
Percent Control (Brassica napus; 50 g/ha): 70%
Percent Control (Chenopodium album; 50 g/ha): 57%
Percent Control (Galeopsis tetrahit; 50 g/ha): 59%
Percent Control (Galium aparine; 50 g/ha): 28%
Percent Control (Kochia scoparia; 50 g/ha): 59%
Percent Control ([1]; 50 g/ha): 26%
Percent Control (Polygonum convolvulus; 50 g/ha): 54%
Percent Control (Salsola kali; 50 g/ha): 56%
Percent Control (Setaria viridis; 50 g/ha): 14%
Percent Control (Sinapis arvensis; 50 g/ha): 78%
Percent Control (Stellaria media; 50 g/ha): 64%
Percent Control (Vaccaria pyramaidata; 50 g/ha): 63%
Percent Control ([2]; 50 g/ha): 65%
Percent Control (Amaranthus retroflexus; 50 g/ha): 90%

CCOC(=O)[C@@H](C)Oc1ccc(Oc2nc3ccc(Cl)cc3o2)cc1 [fenoxaprop-p-ethyl]
Percent Control (Brassica napus; 72 g/ha): 0%
Percent Control (Chenopodium album; 72 g/ha): 0%
Percent Control (Polygonum convolvulus; 72 g/ha): 0%
Percent Control (Setaria viridis; 72 g/ha): 98%
Percent Control (Sinapis arvensis; 72 g/ha): 0%
Percent Control (Vaccaria pyramaidata; 72 g/ha): 0%
Percent Control ([2]; 72 g/ha): 0%
Percent Control (Amaranthus retroflexus; 72 g/ha): 9%

O=C(O)COc1ccc(Cl)cc1Cl [2,4-D, 2,4-dichlorophenoxyacetic acid]
Percent Control (Avena fatua; 280 g/ha): 2%
Percent Control (Brassica napus; 280 g/ha): 93%
Percent Control (Chenopodium album; 280 g/ha): 91%
Percent Control (Galeopsis tetrahit; 280 g/ha): 2%
Percent Control (Galium aparine; 280 g/ha): 43%
Percent Control (Kochia scoparia; 280 g/ha): 52%
Percent Control ([1]; 280 g/ha): 53%
Percent Control (Polygonum convolvulus; 280 g/ha): 48%
Percent Control (Salsola kali; 280 g/ha): 35%
Percent Control (Setaria viridis; 280 g/ha): 0%
Percent Control (Sinapis arvensis; 280 g/ha): 92%
Percent Control (Stellaria media; 280 g/ha): 10%
Percent Control (Vaccaria pyramaidata; 280 g/ha): 51%
Percent Control ([2]; 280 g/ha): 94%
